Source: ChEMBL document CHEMBL1139325, “Discovery of targeting ligands for breast cancer cells using the one-bead one-compound combinatorial method” (J Med Chem, 2009)
Active and inactive are the calls of the source.

Legend:
Format in all cases: cell-based
[1] = target: Integrin alpha-5 (Homo sapiens) (UniProt P08648); test: Binding affinity to integrin alpha5 in human K562 cells at 1 uM for 30 mins by flow cytometry
[2] = target: Integrin alpha-2 (Homo sapiens) (UniProt P17301); test: Binding affinity to integrin alpha2 expressed in human K562 cells at 1 uM for 30 mins by flow cytometry
Chain of Integrin alpha-2 (Homo sapiens) (P17301 whole entry): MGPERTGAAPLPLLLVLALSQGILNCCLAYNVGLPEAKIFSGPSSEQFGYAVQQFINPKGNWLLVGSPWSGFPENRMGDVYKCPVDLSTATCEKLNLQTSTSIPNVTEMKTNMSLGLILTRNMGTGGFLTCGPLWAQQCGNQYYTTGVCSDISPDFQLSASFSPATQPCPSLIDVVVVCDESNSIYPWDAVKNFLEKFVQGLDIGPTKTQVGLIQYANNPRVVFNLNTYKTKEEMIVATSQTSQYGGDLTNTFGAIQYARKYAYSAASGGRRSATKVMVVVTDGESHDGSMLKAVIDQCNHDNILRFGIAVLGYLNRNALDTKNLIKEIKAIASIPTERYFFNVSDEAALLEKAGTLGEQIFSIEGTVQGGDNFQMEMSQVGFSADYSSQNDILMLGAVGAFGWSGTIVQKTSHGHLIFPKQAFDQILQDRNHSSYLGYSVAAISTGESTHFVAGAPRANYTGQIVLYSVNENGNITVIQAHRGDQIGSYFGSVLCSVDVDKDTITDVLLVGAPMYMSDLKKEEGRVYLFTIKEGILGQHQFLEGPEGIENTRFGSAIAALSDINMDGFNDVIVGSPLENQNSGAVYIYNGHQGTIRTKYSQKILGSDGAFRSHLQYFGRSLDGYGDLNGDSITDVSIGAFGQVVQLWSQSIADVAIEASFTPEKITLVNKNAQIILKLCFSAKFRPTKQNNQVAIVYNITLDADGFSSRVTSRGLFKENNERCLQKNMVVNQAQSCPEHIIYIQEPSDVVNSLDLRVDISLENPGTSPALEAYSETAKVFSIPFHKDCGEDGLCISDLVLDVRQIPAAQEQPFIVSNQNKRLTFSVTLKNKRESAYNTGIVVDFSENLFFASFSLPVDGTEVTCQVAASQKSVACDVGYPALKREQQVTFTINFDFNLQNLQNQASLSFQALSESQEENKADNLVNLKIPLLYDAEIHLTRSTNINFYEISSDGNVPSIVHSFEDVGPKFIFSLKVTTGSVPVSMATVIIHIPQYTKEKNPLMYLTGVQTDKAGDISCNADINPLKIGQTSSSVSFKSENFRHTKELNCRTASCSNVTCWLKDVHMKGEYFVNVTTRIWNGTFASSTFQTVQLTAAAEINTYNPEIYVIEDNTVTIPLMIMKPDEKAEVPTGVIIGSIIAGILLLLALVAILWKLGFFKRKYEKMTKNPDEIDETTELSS

[3] = system: K562; test: Decrease in binding affinity to integrin alpha3 G163A mutant expressed in human K562 cells by flow cytometry
[4] = target: Integrin alpha-1 (Homo sapiens) (UniProt P56199); test: Binding affinity to integrin alpha1 expressed in human K562 cells at 1 uM for 30 mins by flow cytometry
Chain of Integrin alpha-1 (Homo sapiens) (P56199 whole entry): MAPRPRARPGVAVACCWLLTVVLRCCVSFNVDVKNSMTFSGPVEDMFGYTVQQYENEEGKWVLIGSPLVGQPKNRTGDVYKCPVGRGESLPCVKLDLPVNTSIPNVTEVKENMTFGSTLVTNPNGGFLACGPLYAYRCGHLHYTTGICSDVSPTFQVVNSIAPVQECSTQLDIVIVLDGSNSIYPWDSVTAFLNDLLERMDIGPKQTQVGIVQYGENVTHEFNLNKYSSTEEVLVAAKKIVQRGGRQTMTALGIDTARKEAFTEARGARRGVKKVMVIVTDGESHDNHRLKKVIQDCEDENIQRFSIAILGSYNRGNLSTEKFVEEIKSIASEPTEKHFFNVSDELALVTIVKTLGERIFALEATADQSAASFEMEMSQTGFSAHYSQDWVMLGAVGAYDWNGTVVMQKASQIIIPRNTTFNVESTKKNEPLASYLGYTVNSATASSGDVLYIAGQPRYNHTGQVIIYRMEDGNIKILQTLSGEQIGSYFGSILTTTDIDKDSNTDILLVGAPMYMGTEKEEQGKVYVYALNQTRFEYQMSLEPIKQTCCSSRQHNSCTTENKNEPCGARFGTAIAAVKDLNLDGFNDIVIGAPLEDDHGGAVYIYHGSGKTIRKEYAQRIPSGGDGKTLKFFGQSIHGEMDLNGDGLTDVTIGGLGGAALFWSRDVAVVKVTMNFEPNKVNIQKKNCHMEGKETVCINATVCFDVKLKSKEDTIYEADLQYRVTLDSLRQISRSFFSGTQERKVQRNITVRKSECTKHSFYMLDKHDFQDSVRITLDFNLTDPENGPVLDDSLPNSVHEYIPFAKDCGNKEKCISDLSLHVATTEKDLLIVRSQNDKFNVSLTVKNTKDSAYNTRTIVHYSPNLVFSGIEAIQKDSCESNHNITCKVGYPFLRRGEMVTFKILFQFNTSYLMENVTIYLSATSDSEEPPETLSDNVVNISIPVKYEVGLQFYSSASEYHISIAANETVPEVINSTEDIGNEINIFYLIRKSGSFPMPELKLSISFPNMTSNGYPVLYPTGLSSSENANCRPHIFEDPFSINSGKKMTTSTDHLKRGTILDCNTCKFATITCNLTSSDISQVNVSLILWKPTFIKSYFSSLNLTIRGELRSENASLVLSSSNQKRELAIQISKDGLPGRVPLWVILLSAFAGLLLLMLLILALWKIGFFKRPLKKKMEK

[5] = target: Integrin alpha-4 (Homo sapiens) (UniProt P13612); test: Binding affinity to integrin alpha4 expressed in human K562 cells at 1 uM for 30 mins by flow cytometry
Chain of Integrin alpha-4 (Homo sapiens) (P13612 whole entry): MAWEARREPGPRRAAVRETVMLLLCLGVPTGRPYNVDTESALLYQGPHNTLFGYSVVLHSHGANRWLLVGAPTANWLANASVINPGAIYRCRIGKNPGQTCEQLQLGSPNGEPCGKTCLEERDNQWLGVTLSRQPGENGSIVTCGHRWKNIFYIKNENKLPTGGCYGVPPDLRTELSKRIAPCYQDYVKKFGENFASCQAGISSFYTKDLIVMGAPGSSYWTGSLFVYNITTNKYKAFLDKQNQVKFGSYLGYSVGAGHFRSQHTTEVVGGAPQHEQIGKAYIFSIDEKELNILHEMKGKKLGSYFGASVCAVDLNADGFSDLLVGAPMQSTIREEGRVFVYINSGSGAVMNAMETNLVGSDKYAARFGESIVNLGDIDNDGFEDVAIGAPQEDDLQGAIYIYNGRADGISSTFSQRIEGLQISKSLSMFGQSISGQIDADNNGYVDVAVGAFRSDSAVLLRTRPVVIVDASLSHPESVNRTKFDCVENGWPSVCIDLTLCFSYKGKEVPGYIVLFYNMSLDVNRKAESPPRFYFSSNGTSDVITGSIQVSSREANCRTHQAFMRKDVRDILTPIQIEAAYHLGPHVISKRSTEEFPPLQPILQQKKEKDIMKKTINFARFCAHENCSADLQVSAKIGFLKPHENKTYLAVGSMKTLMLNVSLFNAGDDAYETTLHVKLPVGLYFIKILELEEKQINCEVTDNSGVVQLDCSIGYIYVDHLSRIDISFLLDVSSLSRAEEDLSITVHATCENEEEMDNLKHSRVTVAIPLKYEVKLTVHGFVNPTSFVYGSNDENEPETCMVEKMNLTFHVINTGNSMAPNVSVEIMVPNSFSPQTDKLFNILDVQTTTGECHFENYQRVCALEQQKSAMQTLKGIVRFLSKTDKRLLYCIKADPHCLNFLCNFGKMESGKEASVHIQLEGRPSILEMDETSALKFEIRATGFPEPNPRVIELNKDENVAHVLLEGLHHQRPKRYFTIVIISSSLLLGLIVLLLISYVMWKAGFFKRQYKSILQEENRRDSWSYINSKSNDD

[6] = system: K562; test: Decrease in binding affinity to integrin alpha3 T162A mutant expressed in human K562 cells by flow cytometry
[7] = target: T1, Integrin alpha-6 (Homo sapiens) (UniProt P23229); test: Binding affinity to integrin alpha6 expressed in human K562 cells at 1 uM for 30 mins by flow cytometry
T1 sequence (whole entry): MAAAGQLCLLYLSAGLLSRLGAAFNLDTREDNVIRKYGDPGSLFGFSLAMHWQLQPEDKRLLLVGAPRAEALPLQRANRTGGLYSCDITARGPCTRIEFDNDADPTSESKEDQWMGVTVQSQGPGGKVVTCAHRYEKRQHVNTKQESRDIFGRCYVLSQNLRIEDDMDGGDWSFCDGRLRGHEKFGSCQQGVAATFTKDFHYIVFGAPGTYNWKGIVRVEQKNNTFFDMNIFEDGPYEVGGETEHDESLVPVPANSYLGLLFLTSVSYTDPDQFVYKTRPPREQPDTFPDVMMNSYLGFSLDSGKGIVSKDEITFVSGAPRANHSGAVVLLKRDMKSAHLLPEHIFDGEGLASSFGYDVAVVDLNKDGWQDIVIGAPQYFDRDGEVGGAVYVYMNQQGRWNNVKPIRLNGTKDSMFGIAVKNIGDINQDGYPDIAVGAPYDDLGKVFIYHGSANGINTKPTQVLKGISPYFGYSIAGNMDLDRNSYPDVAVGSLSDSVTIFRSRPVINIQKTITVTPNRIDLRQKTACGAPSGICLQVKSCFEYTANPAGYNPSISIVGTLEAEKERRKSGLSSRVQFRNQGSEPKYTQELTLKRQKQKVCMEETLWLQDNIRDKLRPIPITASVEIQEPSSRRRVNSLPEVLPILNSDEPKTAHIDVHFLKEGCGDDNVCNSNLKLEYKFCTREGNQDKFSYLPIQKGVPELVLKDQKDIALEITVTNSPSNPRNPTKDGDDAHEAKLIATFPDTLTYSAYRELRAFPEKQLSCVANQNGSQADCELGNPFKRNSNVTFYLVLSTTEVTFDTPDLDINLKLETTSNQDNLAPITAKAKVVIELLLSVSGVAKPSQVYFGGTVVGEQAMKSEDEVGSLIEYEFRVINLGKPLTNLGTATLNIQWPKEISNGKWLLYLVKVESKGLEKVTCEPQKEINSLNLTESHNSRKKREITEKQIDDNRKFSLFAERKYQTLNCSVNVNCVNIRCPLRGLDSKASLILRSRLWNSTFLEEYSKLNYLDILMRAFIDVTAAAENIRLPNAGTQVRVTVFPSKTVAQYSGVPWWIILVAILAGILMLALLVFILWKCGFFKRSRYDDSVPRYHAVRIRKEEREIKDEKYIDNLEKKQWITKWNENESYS

[8] = target: Integrin alpha-V/beta-3 (Homo sapiens) (UniProt P05106+P06756); test: Binding affinity to integrin alphaVbeta3 expressed in human K562 cells at 1 uM for 30 mins by flow cytometry
[9] = system: K562; test: Decrease in binding affinity to integrin alpha3 M164A mutant expressed in human K562 cells by flow cytometry
[10] = target: T2, Integrin alpha-9 (Homo sapiens) (UniProt Q13797); test: Binding affinity to integrin alpha9 expressed in human K562 cells at 1 uM for 30 mins by flow cytometry
T2 sequence (whole entry): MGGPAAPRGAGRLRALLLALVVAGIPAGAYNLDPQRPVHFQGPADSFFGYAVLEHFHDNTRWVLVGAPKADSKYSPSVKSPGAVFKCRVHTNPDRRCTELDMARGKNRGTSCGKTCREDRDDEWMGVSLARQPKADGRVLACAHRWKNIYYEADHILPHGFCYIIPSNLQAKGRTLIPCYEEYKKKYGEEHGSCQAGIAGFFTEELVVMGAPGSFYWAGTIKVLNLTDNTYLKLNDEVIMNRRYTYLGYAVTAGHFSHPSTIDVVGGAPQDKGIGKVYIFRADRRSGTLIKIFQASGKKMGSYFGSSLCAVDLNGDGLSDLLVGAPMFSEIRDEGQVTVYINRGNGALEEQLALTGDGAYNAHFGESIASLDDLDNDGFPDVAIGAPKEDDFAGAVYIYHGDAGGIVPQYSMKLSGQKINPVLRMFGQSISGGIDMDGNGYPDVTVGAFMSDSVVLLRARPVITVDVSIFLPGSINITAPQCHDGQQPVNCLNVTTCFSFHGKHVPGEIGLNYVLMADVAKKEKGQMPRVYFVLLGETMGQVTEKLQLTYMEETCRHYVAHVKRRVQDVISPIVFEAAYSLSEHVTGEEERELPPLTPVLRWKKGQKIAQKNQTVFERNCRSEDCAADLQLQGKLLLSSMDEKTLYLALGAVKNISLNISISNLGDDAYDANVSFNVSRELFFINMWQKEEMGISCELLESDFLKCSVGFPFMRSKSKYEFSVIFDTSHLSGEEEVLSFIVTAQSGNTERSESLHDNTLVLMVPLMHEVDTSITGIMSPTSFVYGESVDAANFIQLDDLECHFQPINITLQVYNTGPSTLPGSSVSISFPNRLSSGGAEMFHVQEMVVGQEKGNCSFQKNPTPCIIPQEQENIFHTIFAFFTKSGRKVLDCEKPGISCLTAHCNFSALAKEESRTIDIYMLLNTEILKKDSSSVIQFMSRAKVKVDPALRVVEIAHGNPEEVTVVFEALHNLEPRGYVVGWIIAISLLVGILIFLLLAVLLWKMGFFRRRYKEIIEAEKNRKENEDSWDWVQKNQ

[11] = system: K562; test: Decrease in binding affinity to integrin alpha3 Y186A mutant expressed in human K562 cells by flow cytometry
[12] = system: K562; test: Decrease in binding affinity to integrin alpha3 D15A mutant expressed in human K562 cells by flow cytometry
[13] = system: K562; test: Decrease in binding affinity to integrin alpha3 T162F mutant expressed in human K562 cells by flow cytometry

Measured: Activity

Chain of Integrin alpha-5 (Homo sapiens) (P08648 42-894 limits assumed): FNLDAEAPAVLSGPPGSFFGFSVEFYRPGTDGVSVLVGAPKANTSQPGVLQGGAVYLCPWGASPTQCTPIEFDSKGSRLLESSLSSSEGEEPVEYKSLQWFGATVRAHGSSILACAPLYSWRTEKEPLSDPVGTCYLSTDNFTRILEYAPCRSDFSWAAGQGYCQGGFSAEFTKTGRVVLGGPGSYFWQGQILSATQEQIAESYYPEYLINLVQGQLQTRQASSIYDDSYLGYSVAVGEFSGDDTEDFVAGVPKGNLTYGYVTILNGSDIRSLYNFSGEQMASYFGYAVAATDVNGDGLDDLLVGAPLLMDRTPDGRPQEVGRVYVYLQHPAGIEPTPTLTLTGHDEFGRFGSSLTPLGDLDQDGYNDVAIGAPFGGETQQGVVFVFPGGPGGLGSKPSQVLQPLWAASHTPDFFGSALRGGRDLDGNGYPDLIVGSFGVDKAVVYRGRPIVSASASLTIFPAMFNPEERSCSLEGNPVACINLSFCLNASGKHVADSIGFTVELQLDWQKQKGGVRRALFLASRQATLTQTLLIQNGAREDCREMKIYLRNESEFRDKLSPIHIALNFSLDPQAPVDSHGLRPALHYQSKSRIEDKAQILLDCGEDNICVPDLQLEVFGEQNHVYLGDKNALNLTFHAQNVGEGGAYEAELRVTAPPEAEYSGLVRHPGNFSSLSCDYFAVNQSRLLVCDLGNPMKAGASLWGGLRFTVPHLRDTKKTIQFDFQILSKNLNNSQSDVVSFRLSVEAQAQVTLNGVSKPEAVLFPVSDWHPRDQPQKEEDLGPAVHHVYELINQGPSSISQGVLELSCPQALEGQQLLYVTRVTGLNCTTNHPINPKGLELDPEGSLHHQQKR
Chain of Integrin alpha-5 (Homo sapiens) (P08648 895-1049 limits assumed): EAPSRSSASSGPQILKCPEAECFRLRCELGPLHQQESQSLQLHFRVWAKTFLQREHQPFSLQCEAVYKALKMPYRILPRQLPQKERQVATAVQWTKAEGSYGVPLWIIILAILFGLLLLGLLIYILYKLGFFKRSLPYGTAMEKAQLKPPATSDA

CC(C)C[C@@H]1NC(=O)CNC(=O)[C@@H](CC(=O)O)NC(=O)[C@@H](N)CSSC[C@@H](C(N)=O)NC(=O)[C@H](CC(N)=O)NC(=O)[C@@H]2C[C@@H](O)CN2C(=O)CNC1=O
inactive: all assays above
